Data: ChEMBL document CHEMBL1201862, “PubChem BioAssay data set” (2004)
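Cells were grown in 96-well plates and exposed to each compound for 48 hours at five concentrations; endpoints were interpolated linearly between bracketing concentrations, or set to the highest concentration if not reached. GI50 = concentration required for 50% inhibition of growth.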 Activity calls are given as the source filed them. Cut-off read from the data, not from the text of the source: active = GI50 up to about 1.1 µM and inactive = higher.

Legend:
Experiment in all cases: inhibition of tumour cell growth, NCI panel, 48 h
UACC-257 = tested on: UACC-257
SNB-75 = tested on: SNB-75
NCI-H23 = tested on: NCI-H23
T47D = tested on: T47D
RXF 393 = tested on: RXF 393
SK-OV-3 = tested on: SK-OV-3
SK-MEL-2 = tested on: SK-MEL-2
SK-MEL-28 = tested on: SK-MEL-28
EKVX = tested on: EKVX
HOP-62 = tested on: HOP-62
HT-29 = tested on: HT-29
IGROV-1 = tested on: IGROV-1
MDA-MB-435 = tested on: MDA-MB-435
OVCAR-3 = tested on: OVCAR-3
KM12 = tested on: KM12
HCC 2998 = tested on: HCC 2998
A549 = tested on: A549
NCI-H460 = tested on: NCI-H460
SF-539 = tested on: SF-539
CAKI-1 = tested on: CAKI-1

Measured: GI50

COC(=O)C1C(C(=O)OC)N(Cc2ccccc2)C(=O)N1Cc1ccccc1 (stereo not given)
inactive: UACC-257 76 µM | SNB-75 > 100 µM | NCI-H23 75.5 µM | T47D 68.9 µM | RXF 393 > 100 µM | SK-OV-3 53.8 µM | SK-MEL-2 > 100 µM | SK-MEL-28 > 100 µM | EKVX > 100 µM | HOP-62 > 100 µM | HT-29 > 100 µM | IGROV-1 85.7 µM | MDA-MB-435 > 100 µM | OVCAR-3 61.8 µM | KM12 > 100 µM | HCC 2998 > 100 µM | A549 > 100 µM | NCI-H460 69.5 µM | SF-539 > 100 µM | CAKI-1 99.5 µM
